Measured values reported in BigSolDB 2.1.

## O=C(O)COc1ccc2ccccc2c1
In acetone, 278.15 K
  solubility (mole fraction): 0.038
In acetone, 283.15 K
  solubility (mole fraction): 0.0427
In acetone, 288.15 K
  solubility (mole fraction): 0.0481
In acetone, 293.15 K
  solubility (mole fraction): 0.0543
In acetone, 298.15 K
  solubility (mole fraction): 0.0613
In acetone, 303.15 K
  solubility (mole fraction): 0.0693
In acetone, 308.15 K
  solubility (mole fraction): 0.0785
In acetone, 313.15 K
  solubility (mole fraction): 0.089
In acetone, 318.15 K
  solubility (mole fraction): 0.101
In acetone, 323.15 K
  solubility (mole fraction): 0.115
In acetonitrile, 278.15 K
  solubility (mole fraction): 0.00475
In acetonitrile, 283.15 K
  solubility (mole fraction): 0.00574
In acetonitrile, 288.15 K
  solubility (mole fraction): 0.00695
In acetonitrile, 293.15 K
  solubility (mole fraction): 0.0084
In acetonitrile, 298.15 K
  solubility (mole fraction): 0.0101
In acetonitrile, 303.15 K
  solubility (mole fraction): 0.0123
In acetonitrile, 308.15 K
  solubility (mole fraction): 0.0148
In acetonitrile, 313.15 K
  solubility (mole fraction): 0.0178
In acetonitrile, 318.15 K
  solubility (mole fraction): 0.0214
In acetonitrile, 323.15 K
  solubility (mole fraction): 0.0258
In ethanol, 278.15 K
  solubility (mole fraction): 0.0128
In ethanol, 283.15 K
  solubility (mole fraction): 0.0152
In ethanol, 288.15 K
  solubility (mole fraction): 0.0181
In ethanol, 293.15 K
  solubility (mole fraction): 0.0217
In ethanol, 298.15 K
  solubility (mole fraction): 0.0261
In ethanol, 303.15 K
  solubility (mole fraction): 0.0315
In ethanol, 308.15 K
  solubility (mole fraction): 0.0383
In ethanol, 313.15 K
  solubility (mole fraction): 0.0469
In ethanol, 318.15 K
  solubility (mole fraction): 0.0582
In ethanol, 323.15 K
  solubility (mole fraction): 0.0728
In ethyl acetate, 278.15 K
  solubility (mole fraction): 0.0145
In ethyl acetate, 283.15 K
  solubility (mole fraction): 0.0167
In ethyl acetate, 288.15 K
  solubility (mole fraction): 0.0192
In ethyl acetate, 293.15 K
  solubility (mole fraction): 0.0221
In ethyl acetate, 298.15 K
  solubility (mole fraction): 0.0255
In ethyl acetate, 303.15 K
  solubility (mole fraction): 0.0294
In ethyl acetate, 308.15 K
  solubility (mole fraction): 0.034
In ethyl acetate, 313.15 K
  solubility (mole fraction): 0.0393
In ethyl acetate, 318.15 K
  solubility (mole fraction): 0.0455
In ethyl acetate, 323.15 K
  solubility (mole fraction): 0.0527
In isobutanol, 278.15 K
  solubility (mole fraction): 0.00557
In isobutanol, 283.15 K
  solubility (mole fraction): 0.00685
In isobutanol, 288.15 K
  solubility (mole fraction): 0.00854
In isobutanol, 293.15 K
  solubility (mole fraction): 0.0106
In isobutanol, 298.15 K
  solubility (mole fraction): 0.0132
In isobutanol, 303.15 K
  solubility (mole fraction): 0.0165
In isobutanol, 308.15 K
  solubility (mole fraction): 0.0208
In isobutanol, 313.15 K
  solubility (mole fraction): 0.0262
In isobutanol, 318.15 K
  solubility (mole fraction): 0.0333
In isobutanol, 323.15 K
  solubility (mole fraction): 0.0422
In isopropanol, 278.15 K
  solubility (mole fraction): 0.00742
In isopropanol, 283.15 K
  solubility (mole fraction): 0.00922
In isopropanol, 288.15 K
  solubility (mole fraction): 0.0115
In isopropanol, 293.15 K
  solubility (mole fraction): 0.0144
In isopropanol, 298.15 K
  solubility (mole fraction): 0.0171
In isopropanol, 303.15 K
  solubility (mole fraction): 0.0217
In isopropanol, 308.15 K
  solubility (mole fraction): 0.0262
In isopropanol, 313.15 K
  solubility (mole fraction): 0.03
In isopropanol, 318.15 K
  solubility (mole fraction): 0.0359
In isopropanol, 323.15 K
  solubility (mole fraction): 0.0407
In isopropyl acetate, 278.15 K
  solubility (mole fraction): 0.0105
In isopropyl acetate, 283.15 K
  solubility (mole fraction): 0.0121
In isopropyl acetate, 288.15 K
  solubility (mole fraction): 0.014
In isopropyl acetate, 293.15 K
  solubility (mole fraction): 0.0162
In isopropyl acetate, 298.15 K
  solubility (mole fraction): 0.0187
In isopropyl acetate, 303.15 K
  solubility (mole fraction): 0.0216
In isopropyl acetate, 308.15 K
  solubility (mole fraction): 0.025
In isopropyl acetate, 313.15 K
  solubility (mole fraction): 0.029
In isopropyl acetate, 318.15 K
  solubility (mole fraction): 0.0336
In isopropyl acetate, 323.15 K
  solubility (mole fraction): 0.039
In methanol, 278.15 K
  solubility (mole fraction): 0.0132
In methanol, 283.15 K
  solubility (mole fraction): 0.0157
In methanol, 288.15 K
  solubility (mole fraction): 0.0188
In methanol, 293.15 K
  solubility (mole fraction): 0.0227
In methanol, 298.15 K
  solubility (mole fraction): 0.0276
In methanol, 303.15 K
  solubility (mole fraction): 0.0339
In methanol, 308.15 K
  solubility (mole fraction): 0.0415
In methanol, 313.15 K
  solubility (mole fraction): 0.052
In methanol, 318.15 K
  solubility (mole fraction): 0.0656
In methanol, 323.15 K
  solubility (mole fraction): 0.0846
In methyl acetate, 278.15 K
  solubility (mole fraction): 0.0156
In methyl acetate, 283.15 K
  solubility (mole fraction): 0.0181
In methyl acetate, 288.15 K
  solubility (mole fraction): 0.021
In methyl acetate, 293.15 K
  solubility (mole fraction): 0.0243
In methyl acetate, 298.15 K
  solubility (mole fraction): 0.0283
In methyl acetate, 303.15 K
  solubility (mole fraction): 0.0329
In methyl acetate, 308.15 K
  solubility (mole fraction): 0.0382
In methyl acetate, 313.15 K
  solubility (mole fraction): 0.0445
In methyl acetate, 318.15 K
  solubility (mole fraction): 0.0517
In methyl acetate, 323.15 K
  solubility (mole fraction): 0.0602
In n-pentanol, 278.15 K
  solubility (mole fraction): 0.0114
In n-pentanol, 283.15 K
  solubility (mole fraction): 0.0137
In n-pentanol, 288.15 K
  solubility (mole fraction): 0.0164
In n-pentanol, 293.15 K
  solubility (mole fraction): 0.019
In n-pentanol, 298.15 K
  solubility (mole fraction): 0.0242
In n-pentanol, 303.15 K
  solubility (mole fraction): 0.0294
In n-pentanol, 308.15 K
  solubility (mole fraction): 0.0362
In n-pentanol, 313.15 K
  solubility (mole fraction): 0.0433
In n-pentanol, 318.15 K
  solubility (mole fraction): 0.0526
In n-pentanol, 323.15 K
  solubility (mole fraction): 0.0691
In n-propanol, 278.15 K
  solubility (mole fraction): 0.0101
In n-propanol, 283.15 K
  solubility (mole fraction): 0.012
In n-propanol, 288.15 K
  solubility (mole fraction): 0.0146
In n-propanol, 293.15 K
  solubility (mole fraction): 0.0178
In n-propanol, 298.15 K
  solubility (mole fraction): 0.0214
In n-propanol, 303.15 K
  solubility (mole fraction): 0.0273
In n-propanol, 308.15 K
  solubility (mole fraction): 0.0324
In n-propanol, 313.15 K
  solubility (mole fraction): 0.04
In n-propanol, 318.15 K
  solubility (mole fraction): 0.0506
In n-propanol, 323.15 K
  solubility (mole fraction): 0.0635
In n-propyl acetate, 278.15 K
  solubility (mole fraction): 0.0123
In n-propyl acetate, 283.15 K
  solubility (mole fraction): 0.0142
In n-propyl acetate, 288.15 K
  solubility (mole fraction): 0.0164
In n-propyl acetate, 293.15 K
  solubility (mole fraction): 0.0189
In n-propyl acetate, 298.15 K
  solubility (mole fraction): 0.0219
In n-propyl acetate, 303.15 K
  solubility (mole fraction): 0.0253
In n-propyl acetate, 308.15 K
  solubility (mole fraction): 0.0293
In n-propyl acetate, 313.15 K
  solubility (mole fraction): 0.0339
In n-propyl acetate, 318.15 K
  solubility (mole fraction): 0.0393
In n-propyl acetate, 323.15 K
  solubility (mole fraction): 0.0454
